Source: the supplement of paper PMC13380429

Assays:
Conditions in all cases: 72 h
U2OS [1] = assay: drug sensitivity score (DSS) for viability; higher = more toxic; extreme values may be limits of the assay
Caco-2 [2] = assay: as above
Calu-3 [3] = assay: as above
HepG2 [4] = assay: as above
Vero E6 [5] = assay: as above
U2OS [6] = assay: cell viability relative to DMSO; higher = less toxic
Caco-2 [7] = assay: as above
Calu-3 [8] = assay: as above
HepG2 [9] = assay: as above
Vero E6 [10] = assay: as above
U2OS [11] = assay: relative viability EC50 (midpoint between 100% and the lowest measured viability); higher = less toxic
Caco-2 [12] = assay: as above
Calu-3 [13] = assay: as above
HepG2 [14] = assay: as above
Vero E6 [15] = assay: as above

Structure (SMILES)	drug sensitivity score (U2OS [1])	drug sensitivity score (Caco-2 [2])	drug sensitivity score (Calu-3 [3])	drug sensitivity score (HepG2 [4])	drug sensitivity score (Vero E6 [5])	cell viability (U2OS [6]; 1 nM)	cell viability (U2OS [6]; 10 nM)	cell viability (U2OS [6]; 100 nM)	cell viability (U2OS [6]; 1000 nM)	cell viability (U2OS [6]; 10000 nM)	cell viability (Caco-2 [7]; 1 nM)	cell viability (Caco-2 [7]; 10 nM)	cell viability (Caco-2 [7]; 100 nM)	cell viability (Caco-2 [7]; 1000 nM)	cell viability (Caco-2 [7]; 10000 nM)	cell viability (Calu-3 [8]; 1 nM)	cell viability (Calu-3 [8]; 10 nM)	cell viability (Calu-3 [8]; 100 nM)	cell viability (Calu-3 [8]; 1000 nM)	cell viability (Calu-3 [8]; 10000 nM)	cell viability (HepG2 [9]; 1 nM)	cell viability (HepG2 [9]; 10 nM)	cell viability (HepG2 [9]; 100 nM)	cell viability (HepG2 [9]; 1000 nM)	cell viability (HepG2 [9]; 10000 nM)	cell viability (Vero E6 [10]; 1 nM)	cell viability (Vero E6 [10]; 10 nM)	cell viability (Vero E6 [10]; 100 nM)	cell viability (Vero E6 [10]; 1000 nM)	cell viability (Vero E6 [10]; 10000 nM)	relative viability EC50 (U2OS [11])	relative viability EC50 (Caco-2 [12])	relative viability EC50 (Calu-3 [13])	relative viability EC50 (HepG2 [14])	relative viability EC50 (Vero E6 [15])
C#C[C@]1(O)CC[C@H]2[C@@H]3CCC4=CC(=O)CC[C@@H]4[C@H]3C(=C)C[C@@]21CC [etonogestrel]	0	0.6	0	0	0	93.8%	95.1%	93.8%	97.1%	103%	87.3%	75.4%	98.7%	81.7%	104%	92.7%	95.1%	104%	97.6%	102%	95.4%	97.2%	94.1%	90%	104%	98.2%	84.7%	95.6%	85.2%	104%	> 10 µM	> 10 µM	> 10 µM	> 10 µM	> 10 µM
COc1ccc(-c2ccc(=N)n(CCCC(=O)O)n2)cc1 [gabazine]	0	0	0	0	0	102%	98.5%	100%	97.1%	103%	111%	106%	99.9%	105%	103%	94.8%	104%	95.1%	98%	93.5%	91.5%	97%	96.8%	95.4%	100%	99.5%	100%	98.9%	95.9%	96%	> 10 µM	> 10 µM	> 10 µM	> 10 µM	> 10 µM
O=C(O)c1cc(O)c(O)c(O)c1 [gallic-acid]	0	0	0	1.6	0	99.4%	94.8%	96.5%	97.3%	106%	104%	89.2%	109%	96.7%	101%	85.4%	93%	96.4%	102%	102%	100%	94.8%	102%	91.4%	79.6%	99.1%	92.4%	95%	106%	102%	> 10 µM	> 10 µM	> 10 µM	> 10 µM	> 10 µM
CCN(CC)Cc1ccc2cc(COC(=O)Nc3ccc(C(=O)NO)cc3)ccc2c1 [givinostat]	14.3	13.1	15.6	17	13.8	99.6%	93.2%	92.7%	30.8%	0.6%	97.8%	89.7%	93.2%	38.4%	0.8%	88.3%	94.6%	77.1%	30.8%	12.9%	99.8%	102%	80.9%	20.4%	0.1%	94.7%	97.7%	96.7%	31.6%	-0.1%	0.561 µM	0.686 µM	0.263 µM	0.327 µM	0.653 µM
